Experimental data from publication PMC11995724, “Antibiotic target discovery by integrated phenotypic and activity-based profiling of electrophilic fragments” (Cell chemical biology, 2025).

Assay: in vitro
Settings: human, hek293t cells

Row | SMILES | viability at 48 h, 25 µM
1 | NC(=O)CCN(C(=O)CCl)c1ccc(F)cc1 [5-C03, 3-[2-chloro-N-(4-fluorophenyl)acetamido]propanamide] | 1.62%
2 | Cn1nccc1CN1C[C@@H](F)C[C@H]1CNC(=O)CCl [5-C04, 2-chloro-N-{[(2S,4S)-4-fluoro-1-[(1-methyl-1H-pyrazol-5-yl)methyl]pyrrolidin-2-yl]methyl}acetamide] | 117%
3 | COc1cc(NC(=O)CCl)c(OC)cc1Cl [5-C05, 2-chloro-N-(4-chloro-2,5-dimethoxyphenyl)acetamide] | 0.731%
4 | Cc1cccc(NC(=O)[C@@H]2CCCN2C(=O)CCl)n1 [5-C06, (2S)-1-(2-chloroacetyl)-N-(6-methylpyridin-2-yl)pyrrolidine-2-carboxamide] | 0.946%
5 | O=C(CCl)NCC1CCCCN1C(=O)C(F)(F)F (stereo not shown) [5-C07, 2-chloro-N-{[1-(2,2,2-trifluoroacetyl)piperidin-2-yl]methyl}acetamide] | 1.83%
6 | CCc1nc(C2CCCN2C(=O)CCl)no1 (stereo not shown) [5-C08, 2-chloro-1-[2-(5-ethyl-1,2,4-oxadiazol-3-yl)pyrrolidin-1-yl]ethan-1-one] | 1.18%
7 | O=C(CCl)NC1CCN(C(=O)C2COc3ccccc3O2)CC1 (stereo not shown) [5-C09, 2-chloro-N-[1-(2,3-dihydro-1,4-benzodioxine-2-carbonyl)piperidin-4-yl]acetamide] | 1.13%
8 | CNC(=O)c1ccc(O)c(NC(=O)CCl)c1 [5-C10, 3-(2-chloroacetamido)-4-hydroxy-N-methylbenzamide] | 114%
9 | CC(C)C1C(=O)Nc2ccc(Cl)cc2N1C(=O)CCl (stereo not shown) [5-C11, 6-chloro-4-(2-chloroacetyl)-3-(propan-2-yl)-1,2,3,4-tetrahydroquinoxalin-2-one] | -0.0252%
10 | Cc1cc(CN(C(=O)CCl)c2csnc2C)cs1 [5-C12, 2-chloro-N-(3-methyl-1,2-thiazol-4-yl)-N-[(5-methylthiophen-3-yl)methyl]acetamide] | 0.6%
11 | Cc1c(CN(CC2CC=CCC2)C(=O)CCl)cnn1C (stereo not shown) [5-C14, 2-chloro-N-[(cyclohex-3-en-1-yl)methyl]-N-[(1,5-dimethyl-1H-pyrazol-4-yl)methyl]acetamide] | 0.469%
12 | Cn1nc(C(F)(F)F)cc1CN(C(=O)CCl)C1CCCC1 [5-C16, 2-chloro-N-cyclopentyl-N-{[1-methyl-3-(trifluoromethyl)-1H-pyrazol-5-yl]methyl}acetamide] | 0.815%
13 | COc1ccccc1NC(=O)c1ccc(NC(=O)C(C)Cl)cc1 (stereo not shown) [5-C17, 4-(2-chloropropanamido)-N-(2-methoxyphenyl)benzamide] | 58%
14 | O=C(CCl)NCC12CCCCC1C2(F)F (stereo not shown) [5-C18, 2-chloro-N-({7,7-difluorobicyclo[4.1.0]heptan-1-yl}methyl)acetamide] | 8.39%
15 | CC(Cl)C(=O)Nc1ccc2c(c1)CCC2 (stereo not shown) [5-C19, 2-chloro-N-(2,3-dihydro-1H-inden-5-yl)propanamide] | 68.8%
16 | COc1cccc2c1CCC2(CO)NC(=O)CCl (stereo not shown) [5-C20, 2-chloro-N-[1-(hydroxymethyl)-4-methoxy-2,3-dihydro-1H-inden-1-yl]acetamide] | 58.2%
17 | CC(Cl)C(=O)Nc1sccc1C(N)=O (stereo not shown) [5-C21, 2-(2-chloropropanamido)thiophene-3-carboxamide] | 85.4%
18 | CN1CCN(C(=O)Cc2cccc(NC(=O)CCl)c2)CC1 [5-C22, 2-chloro-N-{3-[2-(4-methylpiperazin-1-yl)-2-oxoethyl]phenyl}acetamide] | 1.44%
19 | O=C(CCl)N1CCN(C(=O)c2cn(C3CC3)nn2)CC1 [5-D03, 2-chloro-1-[4-(1-cyclopropyl-1H-1,2,3-triazole-4-carbonyl)piperazin-1-yl]ethan-1-one] | 2.35%
20 | CCOC(=O)c1c(NC(=O)C(C)Cl)sc2c1CCC(C)C2 (stereo not shown) [5-D04, ethyl 2-(2-chloropropanamido)-6-methyl-4,5,6,7-tetrahydro-1-benzothiophene-3-carboxylate] | 90.9%
21 | O=C(NC1CCCN(C(=O)CCl)C1)c1cc2ccccc2o1 (stereo not shown) [5-D05, N-[1-(2-chloroacetyl)piperidin-3-yl]-1-benzofuran-2-carboxamide] | 0.852%
22 | CC(Cl)C(=O)N(C)c1ccccc1 (stereo not shown) [5-D06, 2-chloro-N-methyl-N-phenylpropanamide] | 102%
23 | Cc1cccc(N(Cc2c(C3CC3)cnn2C)C(=O)CCl)c1 [5-D07, 2-chloro-N-[(4-cyclopropyl-1-methyl-1H-pyrazol-5-yl)methyl]-N-(3-methylphenyl)acetamide] | 0.857%
24 | CC(Cl)C(=O)NC(=O)Nc1ccc2c(c1)OCCO2 (stereo not shown) [5-D08, 3-(2-chloropropanoyl)-1-(2,3-dihydro-1,4-benzodioxin-6-yl)urea] | 84.1%
25 | CCN(Cc1ccc(OC)c(F)c1)C(=O)CCl [5-D09, 2-chloro-N-ethyl-N-[(3-fluoro-4-methoxyphenyl)methyl]acetamide] | 1.38%
26 | N#Cc1c(NC(=O)CCl)oc(-c2ccco2)c1-c1ccco1 [5-D10, 2-chloro-N-[4'-cyano-2'-(furan-2-yl)-[2,3'-bifuran]-5'-yl]acetamide] | 45.5%

Row | SMILES | viability at 48 h, 25 µM
27 | CCN(C(=O)CCl)C1CCCCC1 [5-D11, 2-chloro-N-cyclohexyl-N-ethylacetamide] | 0.918%
28 | COc1ccc(CCNC(=O)C(C)Cl)cc1 (stereo not shown) [5-D12, 2-chloro-N-[2-(4-methoxyphenyl)ethyl]propanamide] | 104%
29 | CC(Cl)C(=O)NCCN1CCn2nccc2C1 (stereo not shown) [5-D13, 2-chloro-N-(2-{4H,5H,6H,7H-pyrazolo[1,5-a]pyrazin-5-yl}ethyl)propanamide] | 98.4%
30 | CC(C)CN(C(=O)CCl)C1CC1 [5-D14, 2-chloro-N-cyclopropyl-N-(2-methylpropyl)acetamide] | 1.19%
31 | CN(Cc1cc(-c2ccccc2)[nH]n1)C(=O)CCl [5-D15, 2-chloro-N-methyl-N-[(5-phenyl-1H-pyrazol-3-yl)methyl]acetamide] | 0.109%
32 | CN(CCOc1ccc(Cl)cc1)C(=O)CCl [5-D16, 2-chloro-N-[2-(4-chlorophenoxy)ethyl]-N-methylacetamide] | 0.377%
33 | COc1ccc2c(c1)CCCN(C(=O)C(C)Cl)C2 (stereo not shown) [5-D17, 2-chloro-1-(7-methoxy-2,3,4,5-tetrahydro-1H-2-benzazepin-2-yl)propan-1-one] | 90.9%
34 | O=C(CCl)Nc1nc(-c2cccs2)cs1 [5-D18, 2-chloro-N-[4-(thiophen-2-yl)-1,3-thiazol-2-yl]acetamide] | 0.312%
35 | CC(Cl)C(=O)Nc1ccc(C2CC(=O)NC(=O)N2)cc1 (stereo not shown) [5-D19, 2-chloro-N-[4-(2,6-dioxo-1,3-diazinan-4-yl)phenyl]propanamide] | 92.5%
36 | N#CCCN(Cc1ccco1)C(=O)CCl [5-D20, 2-chloro-N-(2-cyanoethyl)-N-[(furan-2-yl)methyl]acetamide] | 1.25%
37 | Cc1ccc2nc(-c3ccc(F)cc3)c(CNC(=O)C(C)Cl)n2c1 (stereo not shown) [5-D21, 2-chloro-N-{[2-(4-fluorophenyl)-6-methylimidazo[1,2-a]pyridin-3-yl]methyl}propanamide] | 113%
38 | Cc1ccc(NC(=O)C(C)Cl)cc1S(=O)(=O)N1CCOCC1 (stereo not shown) [5-D22, 2-chloro-N-[4-methyl-3-(morpholine-4-sulfonyl)phenyl]propanamide] | 77.8%
39 | CN(C1CCCCC1)S(=O)(=O)c1ccc(NC(=O)CCl)cc1 [5-E03, 2-chloro-N-{4-[cyclohexyl(methyl)sulfamoyl]phenyl}acetamide] | -0.149%
40 | Cc1noc(CC(NC(=O)CCl)c2ccccc2)n1 (stereo not shown) [5-E04, 2-chloro-N-[2-(3-methyl-1,2,4-oxadiazol-5-yl)-1-phenylethyl]acetamide] | 29.3%
41 | COc1cccc(CN(C(=O)CCl)C23CC4CC(CC(C4)C2)C3)c1 [5-E05, N-(adamantan-1-yl)-2-chloro-N-[(3-methoxyphenyl)methyl]acetamide] | 0.151%
42 | CC(C)N(Cc1ccc(N(C)C)cc1)C(=O)CCl [5-E06, 2-chloro-N-{[4-(dimethylamino)phenyl]methyl}-N-(propan-2-yl)acetamide] | 1.94%
43 | Cc1ccc(S(=O)(=O)NC2CN(C(=O)CCl)C2)cc1 [5-E07, N-[1-(2-chloroacetyl)azetidin-3-yl]-4-methylbenzene-1-sulfonamide] | 0.324%
44 | O=C(CCl)N1CCCCC1Cn1ccnn1 (stereo not shown) [5-E08, 2-chloro-1-{2-[(1H-1,2,3-triazol-1-yl)methyl]piperidin-1-yl}ethan-1-one] | 28%
45 | O=C(CCl)NC1CC(=O)N(c2cccc(C(F)(F)F)c2)C1 (stereo not shown) [5-E09, 2-chloro-N-{5-oxo-1-[3-(trifluoromethyl)phenyl]pyrrolidin-3-yl}acetamide] | 0.777%
46 | O=C(CCl)N1CCOCC1c1noc(-c2ccccc2)n1 (stereo not shown) [5-E10, 2-chloro-1-[3-(5-phenyl-1,2,4-oxadiazol-3-yl)morpholin-4-yl]ethan-1-one] | 1.07%
47 | CC(NC(=O)CCl)c1cn(C)c2cc(Cl)ccc12 (stereo not shown) [5-E11, 2-chloro-N-[1-(6-chloro-1-methyl-1H-indol-3-yl)ethyl]acetamide] | 0.196%
48 | COc1cc(CN(C(=O)CCl)C2CCCOC2)ccc1C (stereo not shown) [5-E12, 2-chloro-N-[(3-methoxy-4-methylphenyl)methyl]-N-(oxan-3-yl)acetamide] | 0.549%
49 | CN(C)S(=O)(=O)c1cc(NC(=O)CCl)ccc1Cl [5-E13, 2-chloro-N-[4-chloro-3-(dimethylsulfamoyl)phenyl]acetamide] | 0.0364%
50 | Cc1cc(CN(C(=O)CCl)c2ccc(F)cc2)nn1C [5-E14, 2-chloro-N-[(1,5-dimethyl-1H-pyrazol-3-yl)methyl]-N-(4-fluorophenyl)acetamide] | 0.639%
51 | O=C(CCl)NCC1(c2ccccc2)CC1 [5-E15, 2-chloro-N-[(1-phenylcyclopropyl)methyl]acetamide] | 3.61%
52 | Cc1cc(C(C)N(Cc2c(C)noc2C)C(=O)CCl)c(C)o1 (stereo not shown) [5-E16, 2-chloro-N-[(3,5-dimethyl-1,2-oxazol-4-yl)methyl]-N-[1-(2,5-dimethylfuran-3-yl)ethyl]acetamide] | 1.18%
